Laboratory results: PubChem BioAssay AID686998 (Broad Institute, 2013)
Where “and” joins values, the source holds several entries; their conditions need not be identical. Equal values may be shown once. Inconclusive results are not listed. Calls of active or inactive are those of the source.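 How the source made its calls: active means falling signal with fitted half-maximal potency no higher than twice the top valid tested dose; inconclusive means poor fit quality, or flat fit spanning -70% to -30%; inactive means potency over limit, rising signal, or flat fit inside 30%.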

Each compound was assayed on Cryptococcus neoformans growth, Alamar Blue, 24 h (assay: fungal growth arrest, C. neoformans – Alamar Blue, cherry-picks, dose response (AID 686998)).

In order of rising IC50:
1. CC[C@H](C)[C@@H]1NC(=O)CNC(=O)c2csc(n2)[C@H](C(C)(C)O)OC(=O)C(C)(C)[C@H](CCCC(C)(Cl)Cl)OC(=O)c2csc1n2  2.16 µM
2. CO[C@@H]1CN(C)C(=O)c2ccc(NS(=O)(=O)c3ccc(Oc4ccccc4)cc3)cc2OC[C@H](C)NC[C@H]1C  3.78 µM
3. COC(=O)C1=C(C)N(Cc2ccccc2)C(=S)N[C@H]1c1ccc(Br)cc1  4.51 µM
4. C[C@@H]1CN([C@H](C)CO)C(=O)Cc2cc(NC(=O)CCCCCC(=O)Nc3ccccc3N)ccc2O[C@H]1CN(C)C(=O)Nc1ccccc1  4.69 µM
5. COc1cccc(NC(=S)NC(=O)Cc2ccc(Cl)cc2)c1  5.24 µM
6. Cc1c(Cl)cccc1NC(=S)NCCc1ccc(Cl)cc1  5.38 µM
7. COC(=O)C1=C(C)N(Cc2ccc(Br)cc2)C(=S)NC1c1cccc(Cl)c1 (stereo unspecified)  5.98 µM
8. CN1c2ccc(-c3ccc(F)cc3)cc2[C@H]2[C@H](CCN2S(=O)(=O)c2cccc(F)c2)[C@H]1CO  6.07 µM
9. Cc1ccc(S(=O)(=O)N2CC[C@@H]3[C@H]2c2cc(-c4ccccc4F)ccc2N[C@@H]3CO)cc1  6.14 µM
10. COc1cccc(S(=O)(=O)Nc2ccc3c(c2)[C@H]2C[C@@H](CC(=O)NC4CCCCC4)O[C@@H](CO)[C@H]2O3)c1  6.96 µM
11. O=C(NC(=S)Nc1cc(Cl)ccc1N1CCOCC1)c1ccccc1[N+](=O)[O-]  7.86 µM
12. CC(C)NC(=O)N(C)C[C@@H]1Oc2c(NC(=O)C3CCCCC3)cccc2C(=O)N([C@@H](C)CO)C[C@@H]1C  8.12 µM
13. COC(=O)C1=C(C)N(Cc2ccc(F)cc2)C(=S)NC1c1cccc(Cl)c1 (stereo unspecified)  10.6 µM
14. CN1C[C@@H]2C(c3ccc(C(F)(F)F)cc3)C3(c4ccccc4)CC2(C3)[C@H]1c1ccccc1 (stereo partly specified)  11.2 µM
15. COC(=O)C1=C(C)N(Cc2ccc(F)cc2)C(=S)NC1c1ccc(Cl)cc1 (stereo unspecified)  11.4 µM
16. Cc1cccc(NC(=S)NN(Cc2ccccc2)c2ccccc2)c1C  11.9 µM
17. COC(=O)C1=C(C)N(Cc2ccc(Br)cc2)C(=S)NC1c1ccccc1 (stereo unspecified)  13.1 µM
18. CC12CC3CC(C)(C1)CC(C(=O)NC(=S)N1CCCCC1)(C3)C2  15.5 µM
19. COC(=O)C1=C(C)N(Cc2ccc(Cl)cc2)C(=S)NC1c1cccc(F)c1 (stereo unspecified)  20.4 µM
20. Cc1cc(C)c2nc(N3CCN(C(=O)c4cccs4)CC3)sc2c1  21.9 µM
21. COC(=O)C1=C(C)N(Cc2ccc(Cl)cc2)C(=S)NC1c1ccc(OC)cc1 (stereo unspecified)  22.6 µM
22. Cc1ccccc1-n1ncc2c(SCC(=O)NCc3cccs3)ncnc21  23.4 µM
23. CCC(=O)N(C)C[C@@H]1Oc2cc(C#CC(C)(C)O)ccc2S(=O)(=O)N([C@@H](C)CO)C[C@H]1C  28.7 µM
24. O=C(CN(c1ccccc1)S(=O)(=O)c1ccccc1)Nc1ccc(F)cc1  40.8 µM
25. CC(C)NC(=O)N(C)C[C@H]1Oc2c(NS(=O)(=O)c3ccc(Cl)cc3)cccc2C(=O)N([C@@H](C)CO)C[C@@H]1C  41.8 µM
26. C[C@@H]1CN([C@@H](C)CO)C(=O)c2cc(-c3cncnc3)cnc2O[C@H]1CN(C)C(=O)CN1CCOCC1  42.4 µM
27. COc1ccc(CN(C)C[C@@H]2Oc3ccc(NC(=O)C4CC4)cc3C(=O)N([C@@H](C)CO)C[C@H]2C)cc1  43.2 µM
28. CC(C)c1ccc(OCC(=O)NC(C)c2ccccc2)cc1 (stereo unspecified)  49.5 µM
29. C[C@H]1CN([C@@H](C)CO)C(=O)Cc2cc(NC(=O)C3CC3)ccc2O[C@@H]1CN(C)C(=O)Nc1cccc2ccccc12  53.6 µM
30. C[C@@H]1CN([C@H](C)CO)C(=O)c2cc(NS(=O)(=O)c3cn(C)cn3)ccc2O[C@@H](C)CCCCO[C@H]1CN(C)C  62.9 µM
31. C[C@H](CO)N1C[C@H](C)[C@@H](CN(C)C(=O)Nc2ccc3c(c2)OCO3)Oc2ccc(NS(=O)(=O)c3cccs3)cc2C1=O  64.4 µM
32. CCOC(=O)CNC(=O)CSc1ncnc2c1cnn2-c1ccc(Cl)cc1  67.1 µM
33. O=C(C[C@@H]1C=C[C@@H](NC(=O)Nc2cc(F)ccc2F)[C@H](CO)O1)NCCCN1CCOCC1  68.3 µM

In the case of `C[C@H](CO)N1C[C@H](C)[C@@H](CN(C)Cc2ccc(Oc3ccccc3)cc2)Oc2ccc(NC(=O)Nc3ccc4c(c3)OCO4)cc2C1=O`, the IC50 is reported as > 70 µM (inactive).
With `CNC[C@@H]1Oc2c(NS(=O)(=O)c3ccc(Cl)cc3)cccc2C(=O)N([C@H](C)CO)C[C@H]1C` the IC50 was > 70 µM (inactive).
For `COC(=O)C1=C(C)N(CC(C)C)C(=S)NC1c1cccc(F)c1` (stereo unspecified), the IC50 was 23.8 µM and 46.8 µM.
`CC(C)NC(=O)Nc1ccc2c(c1)CC(=O)N([C@H](C)CO)C[C@H](C)[C@@H](CN(C)C(=O)Nc1ccc3c(c1)OCO3)O2` was tested, and the IC50 was > 70 µM (inactive).
`COC(=O)C1=C(C)N(CC(C)C)C(=S)NC1c1ccc(-c2ccccc2)cc1` (stereo unspecified) was tested, and the IC50 was 3.78 µM and 3.99 µM.
`CC(=O)N[C@H]1CC[C@H](CCNC(=O)C2CCC2)O[C@@H]1CO` was tested, and the IC50 was > 70 µM (inactive).
With `COc1ccc(CN(C)C[C@@H]2OCCCC[C@@H](C)Oc3ccc(NC(=O)c4ccccc4)cc3C(=O)N([C@H](C)CO)C[C@@H]2C)cc1` the IC50 was > 70 µM (inactive).
With `CO[C@@H]1CN(C)C(=O)c2ccc(NC(C)=O)cc2OC[C@@H](C)N(C(=O)Cc2cccnc2)C[C@H]1C` the IC50 was > 60 µM (inactive).
